“And” between values parts separate entries of the source, which are not always exact repeats. Equal entries are not always repeated.
Details: Fluid (supercritical or subcritical phases), Hot wire method

[HH] [hydrogen]
Details | thermal conductivity
323.19 K, 5191 kPa | 0.2032 W/m/K
323.19 K, 5193 kPa | 0.2032 W/m/K
323.19 K, 10094 kPa | 0.2067 W/m/K
323.19 K, 10100 kPa | 0.2065 W/m/K
323.2 K, 261 kPa | 0.1971 W/m/K and 0.197 W/m/K
323.2 K, 266 kPa | 0.1971 W/m/K
323.2 K, 267 kPa | 0.1973 W/m/K
323.2 K, 5186 kPa | 0.2029 W/m/K
323.2 K, 5188 kPa | 0.2031 W/m/K
323.2 K, 5190 kPa | 0.2031 W/m/K
323.2 K, 10084 kPa | 0.2067 W/m/K
323.2 K, 10087 kPa | 0.2067 W/m/K
323.2 K, 10095 kPa | 0.2065 W/m/K
323.2 K, 19987 kPa | 0.2147 W/m/K
323.2 K, 19989 kPa | 0.2142 W/m/K
323.2 K, 19998 kPa | 0.2146 W/m/K
323.2 K, 20000 kPa | 0.2142 W/m/K
323.2 K, 39984 kPa | 0.2311 W/m/K
323.2 K, 39993 kPa | 0.2306 W/m/K
323.2 K, 40006 kPa | 0.2312 W/m/K
323.2 K, 40011 kPa | 0.2304 W/m/K
323.2 K, 40020 kPa | 0.2313 W/m/K
323.2 K, 59948 kPa | 0.2488 W/m/K
323.2 K, 59968 kPa | 0.2483 W/m/K
323.2 K, 59985 kPa | 0.2488 W/m/K
323.2 K, 59986 kPa | 0.2482 W/m/K
323.2 K, 79963 kPa | 0.2659 W/m/K
323.2 K, 79984 kPa | 0.2654 W/m/K
323.2 K, 80001 kPa | 0.2659 W/m/K
323.2 K, 80012 kPa | 0.2648 W/m/K
323.2 K, 80034 kPa | 0.2657 W/m/K
323.2 K, 97707 kPa | 0.2804 W/m/K
323.2 K, 97716 kPa | 0.282 W/m/K
323.2 K, 97745 kPa | 0.2813 W/m/K
323.2 K, 97753 kPa | 0.2816 W/m/K
323.2 K, 97762 kPa | 0.2814 W/m/K
323.21 K, 19980 kPa | 0.2147 W/m/K
323.21 K, 59935 kPa | 0.2488 W/m/K
373.22 K, 598 kPa | 0.2223 W/m/K and 0.2224 W/m/K
373.22 K, 599 kPa | 0.2225 W/m/K
373.22 K, 5170 kPa | 0.2262 W/m/K and 0.226 W/m/K and 0.2261 W/m/K
373.22 K, 70084 kPa | 0.2757 W/m/K and 0.2758 W/m/K
373.22 K, 70086 kPa | 0.2758 W/m/K
373.22 K, 98187 kPa | 0.2983 W/m/K
373.22 K, 98197 kPa | 0.2988 W/m/K
373.23 K, 599 kPa | 0.2224 W/m/K
373.23 K, 4315 kPa | 0.2265 W/m/K
373.23 K, 4316 kPa | 0.2258 W/m/K and 0.2256 W/m/K
373.23 K, 5171 kPa | 0.2262 W/m/K
373.23 K, 10126 kPa | 0.2289 W/m/K
373.23 K, 10127 kPa | 0.2291 W/m/K
373.23 K, 10219 kPa | 0.2296 W/m/K and 0.2295 W/m/K and 0.2298 W/m/K
373.23 K, 30052 kPa | 0.2428 W/m/K and 0.2427 W/m/K
373.23 K, 30053 kPa | 0.2422 W/m/K
373.23 K, 30119 kPa | 0.2438 W/m/K
373.23 K, 30120 kPa | 0.2437 W/m/K and 0.2433 W/m/K
373.23 K, 30122 kPa | 0.2432 W/m/K
373.23 K, 49936 kPa | 0.2599 W/m/K and 0.2582 W/m/K and 0.2587 W/m/K
373.23 K, 50144 kPa | 0.2589 W/m/K and 0.2588 W/m/K
373.23 K, 69997 kPa | 0.2756 W/m/K
373.23 K, 69998 kPa | 0.2753 W/m/K and 0.2751 W/m/K
373.23 K, 97555 kPa | 0.3001 W/m/K
373.23 K, 97558 kPa | 0.2995 W/m/K
373.23 K, 97560 kPa | 0.2989 W/m/K
373.23 K, 98190 kPa | 0.2987 W/m/K
373.23 K, 98193 kPa | 0.2983 W/m/K
373.24 K, 10126 kPa | 0.2296 W/m/K
423.25 K, 5114 kPa | 0.2475 W/m/K
423.25 K, 10105 kPa | 0.2494 W/m/K and 0.2502 W/m/K
423.25 K, 30087 kPa | 0.262 W/m/K and 0.2619 W/m/K and 0.2615 W/m/K
423.25 K, 50102 kPa | 0.2764 W/m/K
423.25 K, 70147 kPa | 0.2939 W/m/K
423.25 K, 70150 kPa | 0.2927 W/m/K
423.25 K, 70155 kPa | 0.2923 W/m/K
423.25 K, 96975 kPa | 0.314 W/m/K
423.25 K, 96978 kPa | 0.3137 W/m/K
423.25 K, 96980 kPa | 0.3142 W/m/K
423.26 K, 403 kPa | 0.2426 W/m/K
423.26 K, 404 kPa | 0.2418 W/m/K
423.26 K, 5113 kPa | 0.2477 W/m/K
423.26 K, 5114 kPa | 0.2476 W/m/K
423.26 K, 10104 kPa | 0.2499 W/m/K
423.26 K, 50100 kPa | 0.2771 W/m/K and 0.2762 W/m/K
423.27 K, 400 kPa | 0.2421 W/m/K
423.27 K, 402 kPa | 0.2431 W/m/K
473.27 K, 10065 kPa | 0.2681 W/m/K and 0.2687 W/m/K
473.27 K, 30123 kPa | 0.2799 W/m/K
473.27 K, 30124 kPa | 0.28 W/m/K and 0.2803 W/m/K
473.27 K, 70155 kPa | 0.3079 W/m/K
473.27 K, 70156 kPa | 0.3088 W/m/K
473.27 K, 70160 kPa | 0.3069 W/m/K
473.27 K, 97457 kPa | 0.3277 W/m/K
473.27 K, 97459 kPa | 0.3262 W/m/K
473.27 K, 97460 kPa | 0.3282 W/m/K
473.28 K, 407 kPa | 0.2609 W/m/K
473.28 K, 408 kPa | 0.261 W/m/K
473.28 K, 409 kPa | 0.2611 W/m/K
473.28 K, 5166 kPa | 0.2673 W/m/K
473.28 K, 5167 kPa | 0.267 W/m/K and 0.2671 W/m/K
473.28 K, 10065 kPa | 0.2691 W/m/K
473.28 K, 50176 kPa | 0.294 W/m/K
473.28 K, 50178 kPa | 0.2937 W/m/K
473.28 K, 50179 kPa | 0.292 W/m/K
473.29 K, 408 kPa | 0.2613 W/m/K
573.26 K, 50202 kPa | 0.3283 W/m/K
573.26 K, 50208 kPa | 0.3253 W/m/K
573.26 K, 96979 kPa | 0.356 W/m/K
573.26 K, 96990 kPa | 0.3549 W/m/K
573.26 K, 97001 kPa | 0.3548 W/m/K
573.27 K, 5202 kPa | 0.3043 W/m/K and 0.3057 W/m/K and 0.3047 W/m/K
573.27 K, 10155 kPa | 0.3066 W/m/K and 0.3072 W/m/K
573.27 K, 10156 kPa | 0.3066 W/m/K
573.27 K, 30167 kPa | 0.3171 W/m/K and 0.3173 W/m/K and 0.3175 W/m/K
573.27 K, 50204 kPa | 0.3274 W/m/K
573.27 K, 70099 kPa | 0.3376 W/m/K
573.27 K, 70106 kPa | 0.3381 W/m/K
573.27 K, 70114 kPa | 0.3387 W/m/K
573.28 K, 365 kPa | 0.2934 W/m/K
573.28 K, 367 kPa | 0.2929 W/m/K
573.28 K, 369 kPa | 0.2931 W/m/K
672.87 K, 30056 kPa | 0.3514 W/m/K
672.87 K, 30063 kPa | 0.3522 W/m/K
672.87 K, 30074 kPa | 0.3514 W/m/K
672.87 K, 50096 kPa | 0.36 W/m/K
672.87 K, 50118 kPa | 0.3625 W/m/K
672.87 K, 98041 kPa | 0.3854 W/m/K
672.87 K, 98074 kPa | 0.3853 W/m/K
672.87 K, 98109 kPa | 0.3873 W/m/K
672.88 K, 5137 kPa | 0.342 W/m/K
672.88 K, 5140 kPa | 0.344 W/m/K
672.88 K, 5143 kPa | 0.3429 W/m/K
672.88 K, 5147 kPa | 0.343 W/m/K
672.88 K, 10059 kPa | 0.3459 W/m/K
672.88 K, 10060 kPa | 0.3456 W/m/K
672.88 K, 10061 kPa | 0.3445 W/m/K
672.88 K, 50107 kPa | 0.3616 W/m/K
672.88 K, 70012 kPa | 0.3693 W/m/K
672.88 K, 70030 kPa | 0.3711 W/m/K
672.88 K, 70044 kPa | 0.3699 W/m/K
672.89 K, 304 kPa | 0.3296 W/m/K and 0.329 W/m/K
672.89 K, 305 kPa | 0.329 W/m/K
672.89 K, 306 kPa | 0.3287 W/m/K
771.9 K, 29994 kPa | 0.3905 W/m/K
771.9 K, 30036 kPa | 0.3906 W/m/K
771.9 K, 49904 kPa | 0.3973 W/m/K
771.9 K, 49932 kPa | 0.3973 W/m/K
771.9 K, 70405 kPa | 0.408 W/m/K
771.9 K, 70444 kPa | 0.4037 W/m/K
771.9 K, 70484 kPa | 0.4065 W/m/K
771.9 K, 98954 kPa | 0.4176 W/m/K
771.9 K, 99008 kPa | 0.417 W/m/K
771.9 K, 99143 kPa | 0.4168 W/m/K
771.9 K, 99205 kPa | 0.4188 W/m/K
771.91 K, 5144 kPa | 0.3835 W/m/K
771.91 K, 10086 kPa | 0.3838 W/m/K
771.91 K, 10092 kPa | 0.3825 W/m/K
771.91 K, 10100 kPa | 0.3836 W/m/K
771.91 K, 10109 kPa | 0.3825 W/m/K
771.91 K, 30014 kPa | 0.3888 W/m/K
771.91 K, 30058 kPa | 0.39 W/m/K
771.91 K, 49879 kPa | 0.3964 W/m/K
771.91 K, 70520 kPa | 0.4053 W/m/K
771.92 K, 378 kPa | 0.3679 W/m/K
771.92 K, 381 kPa | 0.3675 W/m/K
771.92 K, 383 kPa | 0.3671 W/m/K
771.92 K, 386 kPa | 0.3678 W/m/K
771.92 K, 5136 kPa | 0.3832 W/m/K
771.92 K, 5140 kPa | 0.3835 W/m/K

Reference: the NIST ThermoML archive (doi:10.1007/s10765-011-1052-5)
